Data set [1] concerns PD1 signal sequence plus 10 amino acids fused to Gaussia Luciferase (PD1-ss+10aa/Gaussia Luciferase). Kind of data set: Dox Induced PD1-ss-Gluc Assay. It is filed as cell-based. The settings on record: 24 hr, read-out: 24 hr Dox Inducible PD1ssGluc 293FRT/TO: Mean IC50. In a few lines: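 Compound dilutions in DMSO/media containing doxycycline were applied to a stable, inducible 293 T-REx line carrying the luciferase fusion, then incubated at 37 °C, 5% CO2. Where stereochemistry is not drawn, values relate to isomer mixtures.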

Data set [2] can be described thus: In Vitro Microsome Stability Assay (monkey). It is filed as in vitro ADME. In a few lines: (§1)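 The value reported is the percentage of parent left after 30 min, calculated from analyte/IS peak-area ratios relative to time zero by LC-MS/MS. Incubations ran at 37° C in 0.1 M potassium phosphate with NADPH and microsomes (stock 20 mg/mL), with compound added from a 0.25 mM DMSO stock. Acetonitrile containing IS stopped the reactions.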

The nature of data set [3]: In Vitro Microsome Stability Assay (mouse). It is filed as in vitro ADME. In a few lines: as §1
Data set [4] in a line: In Vitro Microsome Stability Assay (rat). It is filed as in vitro ADME. A digest of the protocol: as §1
For data set [5], the system named is full length TNFα (amino acids 1-233) fused to Gaussia Luciferase. Kind of data set: Dox Induced TNFα-FL-Gluc Assay. The class given is cell-based. The settings on record: 24 hr, read-out: 24 hr Dox Inducible TNFaFLGluc 293FRT/TO: Mean IC50. A digest of the protocol:
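Compounds diluted in DMSO/medium with doxycycline were incubated at 37° C, 5% CO2 with 293 T-REx cells stably carrying a Tet-regulated TNFα(1-233)-Gaussia luciferase construct. Data for structures drawn without stereochemistry refer to stereoisomer mixtures.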

In data set [6] the test system is full length IL-2 (amino acids 1-153) fused to Gaussia Luciferase. Put plainly: Dox Induced IL2-FL-Gluc Assay. Conditions: 24 hr, read-out: 24 hr Dox Inducible IL2FLGluc 293FRT/TO: Mean IC50. The class given is cell-based. From the text:
FIp-In 293 T-REx™ cells were transfected with pcDNA™5/FRT/TO plasmid inserted with cDNA encoding Gaussia Luciferase fused to the 3′ end of cDNA encoding full length IL-2 (amino acids 1-153). Transfected cells were selected for resistance to the selectable markers Hygromycin and Blasticidin to create a stable cell line that contained the IL-2-FL/Gaussia Luciferase cDNA insert whose expression was regulated under the T-REx™ system. The day before assay, cells were trypsinized and plated in 384-well tissue culture plates. The next day, compound dilutions in DMSO/media containing doxycycline were added to the wells and incubated at 37° C., 5% CO2.
For chemical structures that include one or more stereoisomers, but are illustrated without indicating stereochemistry, the assay data refers to a mixture of stereoisomers.

The nature of data set [7]: In Vitro Microsome Stability Assay (human). The class given is in vitro ADME. In a few lines: as §1
For data set [8], the system named is multiple myeloma cell line NCl-H929. Put plainly: H929 Cell Viability Assay. It is filed as cell-based, human. The settings on record: Homo sapiens, NCI-H929, 48 h. A digest of the protocol:
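Viability was determined by CellTiter-Glo luminescence after a 48 h, 37 °C exposure of NCI-H929 cells to serial compound dilutions in medium containing 10% FBS. Where stereochemistry is not shown, values refer to a mix of stereoisomers.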

For data set [9], the system named is multiple myeloma cell line U266B1. Kind of data set: U266 Cell Viability Assay. Conditions: Homo sapiens, U-266, 48 hr. It is filed as cell-based, human. In a few lines:
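Viability was measured by CellTiter-Glo luminescence after 48 h compound exposure at 37° C, 5% CO2. The cells were U266B1 multiple myeloma cells grown in RPMI 1640 plus 10% FBS. Where stereochemistry is not shown, values apply to the stereoisomer mixture.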

The mark [10] stands for this setting: monkey liver microsomes, 30 min w/ NADPH.
Where [11] appears, read: mouse liver microsomes, 30 min w/ NADPH.
Setting [12] is: rat liver microsomes, 30 min w/ NADPH.
Setting [13] is: human liver microsomes, 30 min w/ NADPH.

Read-outs that look alike come from different tables or passages of the source.

Turning to `Cc1cc(F)ccc1N1CC2(C1)CN(S(=O)(=O)N1CCCN(CC3CCCCC3)CCCN(S(=O)(=O)c3ccc(N(C)C)cc3)C[C@H](C)C1)C2` [A161, 4-{[(3S)-9-(cyclohexylmethyl)-5-{[6-(4-fluoro-2-methylphenyl)-2,6-diazaspiro[3.3]heptan-2-yl]sulfonyl}-3-methyl-1,5,9-triazacyclododecan-1-yl]sulfonyl}-N,N-dimethylaniline], the IC50 was 577 nM in [1] (Dox inducible, 293FRT/TO cells); more than 25000 nM in [5] (Dox inducible, 293FRT/TO cells); 726 nM in data set [6] (Dox inducible, 293FRT/TO cells). The “Liver Microsome Stability-% Left after 30 min w/ NADPH (%) Monkey” value (shortened to “Liver Microsome Stability-% Left … (%) Monkey”) in data set [2] (setting [10]) came to 16.7%. Further, the “Liver Microsome Stability-% Left after 30 min w/ NADPH (%) Mouse” value (from here on “Liver Microsome Stability-% Left … (%) Mouse”) in [3] (setting [11]) came out at 26.5%. The “Liver Microsome Stability-% Left after 30 min w/ NADPH (%) Rat” value (“Liver Microsome Stability-% Left … (%) Rat” below) in data set [4] (setting [12]) was 27.3%. For the same compound, in data set [7] (setting [13]), the “Liver Microsome Stability-% Left after 30 min w/ NADPH (%) Human” value (“Liver Microsome Stability-% Left … (%) Human” for short) is 20.2%. The EC50 was more than 25000 nM in data set [8] (H929, Celltiter-Glo) and more than 25000 nM in [9] (U266, Celltiter-Glo).

For `C[C@H]1CCN(S(=O)(=O)c2ccc(N(C)C)cc2)CCCN(CC2CCCCC2)CCCN1S(=O)(=O)N1CCc2cc(Cl)ccc2C1` [A147, 4-{[(4 S)-5-[(6-chloro-1,2,3,4-tetrahydroisoquinolin-2-yl)sulfonyl]-9-(cyclohexylmethyl)-4-methyl-1,5,9-triazacyclododecan-1-yl]sulfonyl}-N,N-dimethylaniline], the IC50 is 4120 nM in data set [1] (Dox inducible, 293FRT/TO cells); more than 25000 nM in data set [5] (Dox inducible, 293FRT/TO cells); more than 25000 nM in [6] (Dox inducible, 293FRT/TO cells). Further, in data set [2] (setting [10]), the “Liver Microsome Stability-% Left … (%) Monkey” value turned out to be 0.99%. Besides, the “Liver Microsome Stability-% Left … (%) Mouse” value in data set [3] (setting [11]) is given as 0.74%. Moreover, the “Liver Microsome Stability-% Left … (%) Rat” value in [4] (setting [12]) is listed as 1.16%. In data set [7] (setting [13]), the “Liver Microsome Stability-% Left … (%) Human” value was found to be 2.76%. For the same compound, the EC50 in [8] (H929, Celltiter-Glo) was more than 25000 nM; in data set [9] (U266, Celltiter-Glo), more than 25000 nM.

`C[C@H]1CN(S(=O)(=O)c2ccc(N(C)C)cc2)CCCN(CC2CCCCC2)CCCN(S(=O)(=O)N2CC[C@@H](c3ccccc3)C2)C1` [A90, 4-{[(3S)-9-(cyclohexylmethyl)-3-methyl-5-{[(3S)-3-phenylpyrrolidin-1-yl]sulfonyl}-1,5,9-triazacyclododecan-1-yl]sulfonyl}-N,N-dimethylaniline]: the IC50 is 207 nM in data set [1] (293FRT/TO), 2410 nM in data set [5] (293FRT/TO) and 493 nM in data set [6] (293FRT/TO). Also, the “Liver Microsome Stability-% Left … (%) Monkey” value in [2] (monkey, 30 min, NADPH) came to 14.1%. Besides, the “Liver Microsome Stability-% Left … (%) Mouse” value in data set [3] (mouse, 30 min, NADPH) is recorded as 28.2%. Besides, the “Liver Microsome Stability-% Left … (%) Rat” value in [4] (rat, 30 min, NADPH) is recorded as 20.2%. The “Liver Microsome Stability-% Left … (%) Human” value in [7] (human, 30 min, NADPH) amounted to 20.1%. Moreover, the EC50 was 3790 nM in data set [8] (H929, read-out: 48 hr H929 Viability Celltiter-Glo: Mean EC50) and more than 25000 nM in [9] (U266, read-out: 48 hr U266 Viability Celltiter-Glo: Mean EC50).

In the case of `C[C@H]1CN(S(=O)(=O)Cc2ccccc2)CCCN(CC2CCCCC2)CCCN(S(=O)(=O)N2CCc3cc(Cl)ccc3C2)C1` [A171, 6-chloro-2-{[(3S)-9-(cyclohexylmethyl)-3-methyl-5-phenylmethanesulfonyl-1,5,9-triazacyclododecan-1-yl]sulfonyl}-1,2,3,4-tetrahydroisoquinoline], the IC50 in data set [1] (Dox inducible, 293FRT/TO cells) is more than 25000 nM; in data set [5] (Dox inducible, 293FRT/TO cells), more than 25000 nM; in [6] (Dox inducible, 293FRT/TO cells), more than 25000 nM. The “Liver Microsome Stability-% Left … (%) Monkey” value in data set [2] (setting [10]) turned out to be 0.26%. In addition, the “Liver Microsome Stability-% Left … (%) Mouse” value in data set [3] (setting [11]) came to 0.91%. Also, the “Liver Microsome Stability-% Left … (%) Rat” value in [4] (setting [12]) was 0.90%. Further, in data set [7] (setting [13]), the “Liver Microsome Stability-% Left … (%) Human” value worked out at 0.60%. For the same compound, the EC50 in data set [8] (H929, Celltiter-Glo) is more than 25000 nM; in data set [9] (U266, Celltiter-Glo) it was more than 25000 nM.

Regarding `C[C@H]1CN(S(=O)(=O)c2ccc(N(C)C)cc2)CCCN(CC2CCCCC2)CCCN(S(=O)(=O)N2CCN(C(=O)c3ccccc3)CC2)C1` [A100, 4-{[(3S)-5-[(4-benzoylpiperazin-1-yl)sulfonyl]-9-(cyclohexylmethyl)-3-methyl-1,5,9-triazacyclododecan-1-yl]sulfonyl}-N,N-dimethylaniline], the IC50 in data set [1] (Dox inducible, 293FRT/TO cells) is 1150 nM; in data set [5] (Dox inducible, 293FRT/TO cells), more than 25000 nM; in data set [6] (Dox inducible, 293FRT/TO cells), 1560 nM. For the same compound, the “Liver Microsome Stability-% Left … (%) Monkey” value in [2] (setting [10]) was 0.04%. Besides, in [3] (setting [11]), the “Liver Microsome Stability-% Left … (%) Mouse” value is listed as 0.1%. Further, the “Liver Microsome Stability-% Left … (%) Rat” value in data set [4] (setting [12]) came to 2.18%. Further, in [7] (setting [13]), the “Liver Microsome Stability-% Left … (%) Human” value is reported as 0.22%. Moreover, the half-maximal effective concentration (EC50) was more than 25000 nM in data set [8] (H929, Celltiter-Glo) and more than 25000 nM in [9] (U266, Celltiter-Glo).

With `COc1ccccc1N1CCN(S(=O)(=O)N2CCCN(CC3CCCCC3)CCCN(S(=O)(=O)c3ccc(N(C)C)cc3)C[C@H](C)C2)CC1` [A154, 4-{[(3S)-9-(cyclohexylmethyl)-5-{[4-(2-methoxyphenyl)piperazin-1-yl]sulfonyl}-3-methyl-1,5,9-triazacyclododecan-1-yl]sulfonyl}-N,N-dimethylaniline], the IC50 amounted to 14.9 nM in data set [1] (Dox inducible, 293FRT/TO cells); 504 nM in [5] (Dox inducible, 293FRT/TO cells); 58.7 nM in [6] (Dox inducible, 293FRT/TO cells). The “Liver Microsome Stability-% Left … (%) Monkey” value in data set [2] (setting [10]) is 10.2%. Also, in data set [3] (setting [11]), the “Liver Microsome Stability-% Left … (%) Mouse” value was determined as 17.5%. For the same compound, the “Liver Microsome Stability-% Left … (%) Rat” value in data set [4] (setting [12]) was 12.3%. Besides, the “Liver Microsome Stability-% Left … (%) Human” value in data set [7] (setting [13]) was 7.33%. For the same compound, the EC50 in data set [8] (H929, Celltiter-Glo) was 749 nM; in [9] (U266, Celltiter-Glo), more than 25000 nM.

Take `CC(C)CCN1CCCN(S(=O)(=O)c2ccc(N(C)C)cc2)C[C@H](C)CN(S(=O)(=O)N2CCc3cc(Cl)ccc3C2)CCC1` [A123, 4-{[(3S)-5-[(6-chloro-1,2,3,4-tetrahydroisoquinolin-2-yl)sulfonyl]-3-methyl-9-(3-methylbutyl)-1,5,9-triazacyclododecan-1-yl]sulfonyl}-N,N-dimethylaniline]: the IC50 in data set [1] (Dox inducible, 293FRT/TO cells) came to 14 nM; in data set [5] (Dox inducible, 293FRT/TO cells) it was 425 nM; in data set [6] (Dox inducible, 293FRT/TO cells), 45.9 nM. In addition, the “Liver Microsome Stability-% Left … (%) Monkey” value in data set [2] (setting [10]) worked out at 3.47%. Moreover, the “Liver Microsome Stability-% Left … (%) Mouse” value in data set [3] (setting [11]) came out at 6.13%. Besides, in [4] (setting [12]), the “Liver Microsome Stability-% Left … (%) Rat” value was 7.41%. Further, in data set [7] (setting [13]), the “Liver Microsome Stability-% Left … (%) Human” value is given as 5.02%. For the same compound, the EC50 in data set [8] (H929, Celltiter-Glo) is 835 nM; in data set [9] (U266, Celltiter-Glo), more than 25000 nM.

In the case of `COc1c(N2CCN(S(=O)(=O)N3CCCN(CC4CCCCC4)CCCN(S(=O)(=O)c4ccc(N(C)C)cc4)C[C@H](C)C3)CC2)ccc(F)c1F` [A174, 4-{[(3S)-9-(cyclohexylmethyl)-5-{[4-(3,4-difluoro-2-methoxyphenyl)piperazin-1-yl]sulfonyl}-3-methyl-1,5,9-triazacyclododecan-1-yl]sulfonyl}-N,N-dimethylaniline], the IC50 was determined as 15.8 nM in data set [1] (Dox inducible, 293FRT/TO cells); 566 nM in [5] (Dox inducible, 293FRT/TO cells); 53.3 nM in data set [6] (Dox inducible, 293FRT/TO cells). Also, the “Liver Microsome Stability-% Left … (%) Monkey” value in data set [2] (setting [10]) turned out to be 28.4%. Moreover, the “Liver Microsome Stability-% Left … (%) Mouse” value in [3] (setting [11]) is 36.9%. Also, the “Liver Microsome Stability-% Left … (%) Rat” value in data set [4] (setting [12]) amounted to 44.4%. Moreover, in data set [7] (setting [13]), the “Liver Microsome Stability-% Left … (%) Human” value was 41.7%. Also, the 50% effective concentration (EC50) in data set [8] (H929, Celltiter-Glo) is 1860 nM; in [9] (U266, Celltiter-Glo), more than 25000 nM.
